Patent publication US12421254B2, “KRAS modulators and uses thereof” (Quanta Therapeutics, Inc., priority 2023, dated 2025)

Experiments:
[1] = molecular target: GST-tagged KRAS-G12D (2-169) (Homo sapiens, UniProt P01116, G12D); experiment: Nucleotide exchange assay (NEA), SOS-mediated, HTRF, KRAS G12D; assay type: biochemical; conditions: Table 4; IC50 extracted at 30 min; 20 nM SOScat; read-out: NEA G12D IC50
In short: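 Compound preincubated 1 h at RT with 0.25 nM GST-KRAS-G12D (2-169) and anti-GST Tb donor, then 20 nM SOS1cat (564-1049) and 150 nM GTP-DY-647P1 added; pH 7.3 HEPES buffer with MgCl2 and DTT. HTRF monitored at RT; % inhibition versus DMSO and no-SOS blank, 4-parameter IC50 taken at 30 min.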

[2] = tested on: phospho-ERK in GP2D (KRAS-G12D) cells; experiment: pERK In Cell Western (ICW) assay (Method B), GP2D; assay type: cell-based; conditions: GP2d, 3 h, Table 4
In short: (§1)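 SW620 (KRAS-G12V), GP2D (KRAS-G12D) and AGS cells, seeded overnight, were exposed to compounds (½-log, 9-point) for 3 h at 37°C, then fixed and stained for phospho-ERK. Infrared imaging; pERK normalized to DRAQ5 DNA stain, expressed as percent of blank control, IC50 by 4-parameter fit.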

[3] = tested on: phospho-ERK in SW620 (KRAS-G12V) cells; experiment: pERK In Cell Western (ICW) assay (Method B), SW620; assay type: cell-based; conditions: Homo sapiens, SW-620, 3 h, Table 4
In short: as §1

[4] = molecular target: GST-tagged KRAS-G12V (2-169) (Homo sapiens, UniProt P01116, G12V); experiment: Nucleotide exchange assay (NEA), SOS-mediated, HTRF, KRAS G12V; assay type: biochemical; conditions: Table 4; IC50 extracted at 90 min; 80 nM SOS
GST-tagged KRAS-G12V (2-169), sequence (P01116 2-169 isoform P01116-2 G12V): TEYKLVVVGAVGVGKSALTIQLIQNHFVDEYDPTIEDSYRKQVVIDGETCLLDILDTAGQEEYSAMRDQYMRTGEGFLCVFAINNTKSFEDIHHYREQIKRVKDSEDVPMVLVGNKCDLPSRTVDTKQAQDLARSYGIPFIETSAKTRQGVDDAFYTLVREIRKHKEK
In short: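 GST-KRAS-G12V (2-169), 0.25 nM, pre-incubated 1 h at RT with compound, then SOS1cat (564-1049) 80 nM and GTP-DY-647P1 150 nM added in HEPES pH 7.3 buffer with MgCl2 and DTT. HTRF via anti-GST Tb cryptate read over 90 min; IC50 from 4-parameter fit at 90 min, blanked to no-SOS reactions.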

GST-tagged KRAS-G12D (2-169), sequence (P01116 2-169 isoform P01116-2 G12D): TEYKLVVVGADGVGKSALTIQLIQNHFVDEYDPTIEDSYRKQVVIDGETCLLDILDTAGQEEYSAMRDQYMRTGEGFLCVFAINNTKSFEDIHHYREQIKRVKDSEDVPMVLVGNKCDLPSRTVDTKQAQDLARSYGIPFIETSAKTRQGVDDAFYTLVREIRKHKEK

SMILES | IC50 [1] [µM] | IC50 [2] [µM] | IC50 [3] [µM] | IC50 [4] [µM]
N#Cc1c(N)sc2c1C1(CN(c3nc(OCC4(CN5CCOCC5)CC4)nc(N4C[C@H]5CC[C@@H](C4)N5)n3)C1)SC2 [Compound 167, 1-(4-((1R,5S)-3,8-diazabicyclo[3.2.1]octan-3-yl)-6-((1-(morpholinomethyl)cyclopropyl)methoxy)-1,3,5-triazin-2-yl)-2′-amino-6′H-spiro[azetidine-3,4′-thieno[3,4-b]thiophene]-3′-carbonitrile] | < 0.01 | < 0.01 | 1 to 20 | 0.01 to 0.1
N#Cc1c(N)sc2c1C1(CN(c3nc(OC[C@@]45CCCN4C[C@H](F)C5)nc(Oc4ccnnc4)n3)C1)SC2 [Compound 169, 2-amino-1′-[4-[[(2R,8S)-2-fluoro-1,2,3,5,6,7-hexahydropyrrolizin-8-yl]methoxy]-6-pyridazin-4-yloxy-1,3,5-triazin-2-yl]spiro[6H-thieno[2,3-c]thiophene-4,3′-azetidine]-3-carbonitrile] | 1 to 20 | 1 to 20 | 1 to 20 | 0.1 to 1
CC(c1nsnc1N)N(C)c1nc(OC[C@@]23CCCN2C[C@H](F)C3)nc(N2CC3(CCc4sc(N)c(C#N)c43)C2)n1 (stereo partly drawn) [Compound 170, -amino-1′-[4-[1-(4-amino-1,2,5-thiadiazol-3-yl)ethyl-methyl-amino]-6-[[(2R,8S)-2-fluoro-1,2,3,5,6,7-hexahydropyrrolizin-8-yl]methoxy]-1,3,5-triazin-2-yl]spiro[5,6-dihydrocyclopenta[b]thiophene-4,3′-azetidine]-3-carbonitrile] | 0.01 to 0.1 | 0.1 to 1 | 0.01 to 0.1 | < 0.01
CCN(c1nc(OC[C@@]23CCCN2C[C@H](F)C3)nc(N2CC3(C2)SCc2sc(N)c(C#N)c23)n1)C(C)c1nonc1N (stereo partly drawn) [Compound 171, 2-amino-1′-[4-[1-(4-amino-1,2,5-oxadiazol-3-yl)ethyl-ethyl-amino]-6-[[(2R,8S)-2-fluoro-1,2,3,5,6,7-hexahydropyrrolizin-8-yl]methoxy]-1,3,5-triazin-2-yl]spiro[6H-thieno[2,3-c]thiophene-4,3′-azetidine]-3-carbonitrile] | 0.01 to 0.1 | 0.01 to 0.1 | < 0.01 | < 0.01
C[C@H](c1cccnc1N)N(C)c1nc(OC[C@@]23CCCN2C[C@H](F)C3)nc(N2CC(C)(c3csc(N)c3C#N)C2)n1 [Compound 172, 2-amino-4-[1-[4-[[(1R)-1-(2-amino-3-pyridyl)ethyl]-methyl-amino]-6-[[(2R,8S)-2-fluoro-1,2,3,5,6,7-hexahydropyrrolizin-8-yl]methoxy]-1,3,5-triazin-2-yl]-3-methyl-azetidin-3-yl]thiophene-3-carbonitrile] | < 0.01 | 0.1 to 1 | 0.01 to 0.1 | < 0.01
CCN(c1nc(OC[C@@]23CCCN2C[C@H](F)C3)nc(N2CC3(CCc4sc(N)c(C#N)c43)C2)n1)[C@H](C)c1cccnc1N [Compound 173, 2-amino-1′-[4-[[(1R)-1-(2-amino-3-pyridyl)ethyl]-ethyl-amino]-6-[[(2R,8S)-2-fluoro-1,2,3,5,6,7-hexahydropyrrolizin-8-yl]methoxy]-1,3,5-triazin-2-yl]spiro[5,6-dihydrocyclopenta[b]thiophene-4,3′-azetidine]-3-carbonitrile] | < 0.01 | < 0.01 | < 0.01 | < 0.01
CC(c1nsnc1N)N(C)c1nc(OC[C@@]23CCCN2C[C@H](F)C3)nc(N2CC3(C2)SCc2sc(N)c(C#N)c23)n1 (stereo partly drawn) [Compound 174, 2-amino-1′-[4-[1-(4-amino-1,2,5-thiadiazol-3-yl)ethyl-methyl-amino]-6-[[(2R,8S)-2-fluoro-1,2,3,5,6,7-hexahydropyrrolizin-8-yl]methoxy]-1,3,5-triazin-2-yl]spiro[6H-thieno[2,3-c]thiophene-4,3′-azetidine]-3-carbonitrile] | < 0.01 | 0.01 to 0.1 | < 0.01 | < 0.01
CCN(c1nc(OC[C@@H]2CC(F)(F)CN2C)nc(N2CC3(C2)SCc2sc(N)c(C#N)c23)n1)[C@H](C)c1cccnc1N [Compound 176, 2-amino-1′-[4-[[(1R)-1-(2-amino-3-pyridyl)ethyl]-ethyl-amino]-6-[[(2S)-4,4-difluoro-1-methyl-pyrrolidin-2-yl]methoxy]-1,3,5-triazin-2-yl]spiro[6H-thieno[3,4-b]thiophene-4,3′-azetidine]-3-carbonitrile] | 0.1 to 1 | 1 to 20 | 0.01 to 0.1 | < 0.01
CCN(c1nc(OCC(C)N(C)C)nc(N2CC3(C2)SCc2sc(N)c(C#N)c23)n1)[C@H](C)c1cccnc1N (stereo partly drawn) [Compound 177, 2-amino-1′-[4-[[(1R)-1-(2-amino-3-pyridyl)ethyl]-ethyl-amino]-6-[2-(dimethylamino)propoxy]-1,3,5-triazin-2-yl]spiro[6H-thieno[3,4-b]thiophene-4,3′-azetidine]-3-carbonitrile] | 0.01 to 0.1 | 0.1 to 1 | 0.1 to 1 | < 0.01
CCN(c1nc(OCCN2CCCCC2)nc(N2CC3(C2)SCc2sc(N)c(C#N)c23)n1)[C@H](C)c1cccnc1N [Compound 178, 2-amino-1′-[4-[[(1R)-1-(2-amino-3-pyridyl)ethyl]-ethyl-amino]-6-[2-(1-piperidyl)ethoxy]-1,3,5-triazin-2-yl]spiro[6H-thieno[3,4-b]thiophene-4,3′-azetidine]-3-carbonitrile] | 0.01 to 0.1 | 0.1 to 1 | 0.01 to 0.1 | < 0.01
CN(Cc1c(F)ccnc1N)c1nc(OC[C@@]23CCCN2C[C@H](F)C3)nc(N2CC3(C2)SCc2sc(N)c(C#N)c23)n1 [Compound 179, 2-amino-1′-[4-[(2-amino-4-fluoro-3-pyridyl)methyl-methyl-amino]-6-[[(2R,8S)-2-fluoro-1,2,3,5,6,7-hexahydropyrrolizin-8-yl]methoxy]-1,3,5-triazin-2-yl]spiro[6H-thieno[2,3-c]thiophene-4,3′-azetidine]-3-carbonitrile] | 0.01 to 0.1 | 0.1 to 1 | 0.01 to 0.1 | < 0.01
C[C@H](c1cccnc1N)N(CCF)c1nc(OC[C@@]23CCCN2C[C@H](F)C3)nc(N2CC3(C2)SCc2sc(N)c(C#N)c23)n1 [Compound 180, 2′-amino-1-(4-(((R)-1-(2-aminopyridin-3-yl)ethyl)(2-fluoroethyl)amino)-6-(((2R,7aS)-2-fluorotetrahydro-1H-pyrrolizin-7a(5H)-yl)methoxy)-1,3,5-triazin-2-yl)-6′H-spiro[azetidine-3,4′-thieno[3,4-b]thiophene]-3′-carbonitrile] | < 0.01 | < 0.01 | < 0.01 | < 0.01
C[C@H](c1cccnc1N)N(CC(F)F)c1nc(OC[C@@]23CCCN2C[C@H](F)C3)nc(N2CC3(C2)SCc2sc(N)c(C#N)c23)n1 [Compound 183, 2-amino-1′-[4-[[(1R)-1-(2-amino-3-pyridyl)ethyl]-(2,2-difluoroethyl)amino]-6-[[(2R,8S)-2-fluoro-1,2,3,5,6,7-hexahydropyrrolizin-8-yl]methoxy]-1,3,5-triazin-2-yl]spiro[6H-thieno[3,4-b]thiophene-4,3′-azetidine]-3-carbonitrile] | < 0.01 | < 0.01 | < 0.01 | < 0.01
N#Cc1c(N)sc2c1C1(CN(c3nc(OC[C@@]45CCCN4C[C@H](F)C5)nc(N4CC(=O)Nc5ncccc5C4)n3)C1)SC2 [Compound 189, 2-amino-1′-[4-[[(2R,8S)-2-fluoro-1,2,3,5,6,7-hexahydropyrrolizin-8-yl]methoxy]-6-(2-oxo-3,5-dihydro-1H-pyrido[2,3-e][1,4]diazepin-4-yl)-1,3,5-triazin-2-yl]spiro[6H-thieno[3,4-b]thiophene-4,3′-azetidine]-3-carbonitrile] | 0.1 to 1 | 1 to 20 | 1 to 20 | 0.01 to 0.1
N#Cc1c(N)sc2c1C1(CN(c3nc(OCC4(CN5CCOCC5)CC4)nc(N4CCNC[C@H]4C(F)F)n3)C1)SC2 [Compound 190, (S)-2′-amino-1-(4-(2-(difluoromethyl)piperazin-1-yl)-6-((1-(morpholinomethyl)cyclopropyl)methoxy)-1,3,5-triazin-2-yl)-6′H-spiro[azetidine-3,4′-thieno[3,4-b]thiophene]-3′-carbonitrile] | < 0.01 | 0.1 to 1 | 1 to 20 | 0.01 to 0.1
N#Cc1c(N)sc2c1C1(CN(c3nc(OC[C@@]45CCCN4C[C@H](F)C5)nc(N(CC(N)=O)Cc4cccnc4N)n3)C1)SC2 [Compound 194, 2-[[4-(2-amino-3-cyano-spiro[6H-thieno[3,4-b]thiophene-4,3′-azetidine]-1′-yl)-6-[[(2R,8S)-2-fluoro-1,2,3,5,6,7-hexahydropyrrolizin-8-yl]methoxy]-1,3,5-triazin-2-yl]-[(2-amino-3-pyridyl)methyl]amino]acetamide] | < 0.01 | 1 to 20 | 1 to 20 | < 0.01
